How the values were obtained:
Test in all cases: relative viability (nuclei count vs DMSO), 5 days (fraction); higher = more cells survive
[1] = compound: O=C(/C=C/c1cccnc1)NCCCCC1CCN(C(=O)c2ccccc2)CC1 [Daporinad] + C[C@]1(O)C[C@@H](c2nc(-c3ccc4ccc(-c5ccccc5)nc4c3)c3c(N)nccn32)C1 [Linsitinib] (partner 1 µM)
In short: (§1)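 Five library-drug doses in √10 steps were combined with a fixed anchor-drug dose, or a single drug was given alone, by pin tool to lung cancer cell lines in 1536-well plates the day after seeding. Nuclei were stained and counted after 5 days. Relative viability is the nuclei count in treated wells over that in vehicle wells, taken as the median of duplicate plates.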

[2] = compound: O=C(/C=C/c1cccnc1)NCCCCC1CCN(C(=O)c2ccccc2)CC1 [Daporinad] + CC(C)C[C@H](NC(=O)[C@H](Cc1ccccc1)NC(=O)c1cnccn1)B(O)O [Bortezomib] (partner 0.002 µM)
In short: as §1

[3] = compound: O=C(/C=C/c1cccnc1)NCCCCC1CCN(C(=O)c2ccccc2)CC1 [Daporinad] + COc1cc2c(Oc3ccc(NC(=O)C4(C(=O)Nc5ccc(F)cc5)CC4)cc3F)ccnc2cc1OCCCN1CCOCC1 [Foretinib] (partner 0.25 µM)
In short: as §1

[4] = compound: COc1cc(Nc2ncc(F)c(Nc3ccc4c(n3)NC(=O)C(C)(C)O4)n2)cc(OC)c1OC [R406] + Cc1cc(Nc2cc(N3CCN(C)CC3)nc(Sc3ccc(NC(=O)C4CC4)cc3)n2)n[nH]1 [Tozasertib] (partner 0.1 µM)
In short: as §1

| Cell Line | relative viability ([1]; first compound 0.0005 µM) | relative viability ([1]; first compound 0.001581 µM) | relative viability ([1]; first compound 0.005 µM) | relative viability ([1]; first compound 0.01581 µM) | relative viability ([2]; first compound 0.0005 µM) | relative viability ([2]; first compound 0.001581 µM) | relative viability ([2]; first compound 0.005 µM) | relative viability ([2]; first compound 0.01581 µM) | relative viability ([3]; first compound 0.0005 µM) | relative viability ([3]; first compound 0.001581 µM) | relative viability ([3]; first compound 0.005 µM) | relative viability ([3]; first compound 0.01581 µM) | relative viability ([4]; first compound 0.08 µM) | relative viability ([4]; first compound 0.8 µM) | relative viability ([4]; first compound 2.53 µM) | relative viability ([4]; first compound 8 µM) | relative viability ([4]; first compound 0.253 µM) |
| --- | --- | --- | --- | --- | --- | --- | --- | --- | --- | --- | --- | --- | --- | --- | --- | --- | --- |
| H3255 | 0.913 | 0.951 | 1.03 | 1.13 | 0.642 | 0.806 | 0.865 | 0.888 | 0.709 | 0.688 | 0.672 | 0.992 | 0.673 | 0.782 | 0.604 | 0.603 |  |
| Calu-6 | 0.841 | 1.03 | 0.926 | 0.821 | 0.957 | 1.04 | 0.848 | 0.352 | 0.768 | 0.874 | 0.772 | 0.35 |  |  |  |  |  |
| NCI-H1792 | 0.392 | 0.486 | 0.359 | 0.686 | 0.924 | 0.98 | 0.711 | 1 |  |  |  |  |  |  |  |  |  |
| NCI-H2170 |  |  |  |  |  |  |  |  | 0.764 | 1.03 | 1.05 | 1.01 | 0.758 | 0.708 | 0.615 | 0.632 | 0.703 |
| NCI-H1650 |  |  |  |  | 0.182 | 0.222 | 0.219 | 0.187 | 1.29 | 1.21 | 1.13 | 0.498 | 0.394 | 0.461 | 0.164 | 0.185 | 0.449 |
| NCI-H2087 | 0.991 | 0.908 | 0.956 | 0.98 | 0.676 | 0.644 | 0.868 | 0.662 | 1.1 | 1.3 | 1.19 | 0.978 | 0.293 | 0.298 |  | 0.253 | 0.238 |
| HCC-366 | 0.687 | 0.753 | 0.87 | 0.887 | 0.971 | 1.1 | 1.12 | 1.04 | 0.962 | 0.844 | 0.972 | 0.959 | 0.101 | 0.133 | 0.0575 | 0.0313 | 0.0718 |
| NCI-H838 | 1.17 | 1.14 | 0.832 | 0.558 | 0.795 | 1.2 | 0.828 | 0.443 | 1.06 | 1.11 | 0.965 | 0.567 | 0.247 | 0.248 | 0.254 | 0.217 | 0.327 |
| LU99A | 0.497 | 0.55 | 0.604 | 0.572 | 1.11 | 1.17 | 1.36 | 1.44 | 0.774 | 0.807 | 0.796 | 0.772 | 0.274 | 0.246 | 0.313 | 0.265 | 0.312 |
| EBC-1 | 0.747 | 1.21 | 0.801 | 1.07 | 0.546 | 0.506 | 0.558 | 0.623 | 0.101 | 0.0907 | 0.0742 | 0.0756 |  |  |  |  |  |
| NCI-H2342 |  |  |  |  |  |  |  |  | 1.09 | 0.974 | 1.01 | 0.969 | 0.494 | 0.491 | 0.469 | 0.479 | 0.644 |
| NCI-H358 | 0.64 | 0.822 | 0.882 | 0.791 |  |  |  |  | 0.689 | 0.898 | 0.827 | 0.545 | 0.107 | 0.081 | 0.109 | 0.0818 | 0.116 |
| SK-MES-1 | 1.1 | 1.13 | 1.17 | 0.905 |  |  |  |  | 0.837 | 1.19 | 0.916 | 1.21 | 0.916 | 0.914 | 0.719 | 0.377 | 0.942 |
| NCI-H1563 | 1.29 | 1.21 | 1.07 | 0.739 | 0.917 | 0.958 | 0.838 | 0.691 | 0.893 | 0.972 | 0.999 | 0.86 |  |  |  |  |  |
| NCI-H1623 |  |  |  |  |  |  |  |  | 0.726 | 0.754 | 0.801 | 0.866 | 0.447 | 0.442 | 0.429 | 0.401 | 0.419 |
| NCI-H1299 | 0.986 | 1.14 | 0.975 | 0.941 | 1.02 | 1.02 | 1.04 | 1.04 | 1.12 | 1.08 | 1.14 | 1.04 |  |  |  |  |  |
| NCI-H1944 | 1.17 | 1.26 | 1.34 | 1.25 |  |  |  |  | 0.897 | 0.903 | 0.971 | 0.945 | 0.252 | 0.241 | 0.228 | 0.181 | 0.272 |
| NCI-H1395 | 1.01 | 1.23 | 0.999 | 1.44 |  |  |  |  | 1.08 | 0.954 | 1.01 | 1.15 | 0.714 | 0.734 | 0.647 | 0.519 | 0.77 |
| NCI-H522 |  |  |  |  |  |  |  |  |  |  |  |  | 0.467 | 0.562 | 0.582 | 0.433 | 0.527 |
| A549 | 0.535 | 0.604 | 0.516 | 0.627 |  |  |  |  | 1.03 | 0.964 | 0.887 | 0.867 |  |  |  |  |  |
| NCI-H1648 |  |  |  |  |  |  |  |  |  |  |  |  |  | 0.498 | 0.608 | 0.639 |  |
| SW 900 |  |  |  |  |  |  |  |  | 0.881 | 0.765 | 0.885 | 0.709 | 0.49 | 0.459 | 0.515 | 0.44 | 0.584 |
| IA-LM | 0.531 | 0.866 | 0.437 | 0.553 | 0.746 | 0.807 | 0.872 | 0.491 | 1.06 | 1.12 | 1.29 | 1.26 |  |  |  |  |  |
| ChaGo-K-1 |  |  |  |  | 0.912 | 0.574 | 0.859 | 0.562 | 0.968 | 0.943 | 0.966 | 0.382 | 0.224 | 0.251 | 0.218 | 0.164 | 0.203 |
| LK-2 | 0.665 | 0.648 | 0.362 | 0.196 |  |  |  |  | 1.08 | 1.54 | 1.29 | 0.308 | 0.17 | 0.166 | 0.182 | 0.186 | 0.163 |
| HCC-44 | 0.655 | 0.635 | 0.762 | 0.714 | 0.83 | 0.843 | 0.841 | 0.825 |  |  |  |  | 0.909 | 0.963 | 0.979 | 0.393 | 0.532 |

Source: the supplement of paper PMC10307832
